Source: patent publication US20120128654A1, “Allantoin Administration for the Treatment of Neurodegenerative Disease and Neurotrauma” (UNIVERSITY OF CINCINNATI, priority 2009, published 2012)

System: NOX-1 expression in the SN
Test: NOX-1 immunohistochemistry, counts of NOX-1ir cells in the SN after 6-OHDA
Format: in vivo, Sprague Dawley rats
Experimental: Rats were anesthetized prior to surgery with Equi-Thesin (0.3 ml/100 g body weight i.p.; chloral hydrate 42.5 mg/ml+sodium pentobarbital 9.72 mg/ml), their heads shaved, and then they were placed in a stereotaxic frame. Their skin was swabbed with Betadyne followed by 70% ETOH. The scalp was then opened to expose the skull. Two 1 mm holes were drilled into the skull and rats were injected in two sites in the striatum with 6-OHDA (MP Biomedicals, Solon, Ohio; 5 μg/μl 6-OHDA in 0.2% ascorbic acid, 0.9% saline solution). The coordinates for these injections were AP −1.6 mm, ML +2.4 mm, DV −4.2 mm and AP −0.2 mm, +ML 2.6 mm, DV −7.0 mm. The needle was zeroed at the skull directly above the injection site in order to target the DV coordinate. For each injection, the needle was lowered slowly to the injection site and 1 minute elapsed before injection commenced, 6-OHDA was injected at 0.5 μl/minute and at the end of the injection the needle was held in place for an additional 2 minutes prior to retraction. The wound area was cleaned with Betadine solution and the scalp was closed with surgical wound clips. This lesion paradigm results in a progressive loss of TH phenotype and frank DA cell death.
Brains were frozen on dry ice and sectioned at a 40 μm thickness using a sliding microtome. Every sixth section through the midbrain was for incubated 30 minutes in sodium citrate 10 mM at 80 degrees Celsius. Following blocking in 10% normal goat serum, tissue was incubated in primary antisera directed against NOX-1 (Santa Cruz Biotechnology, Santa Cruz, Calif., 1:1000). Following primary incubation, sections were incubated in biotinylated secondary antisera against rabbit IgG (Vector Laboratory, Burlingame, Calif., 1:200) followed by the Vector ABC detection kit employing horseradish peroxidase. Antibody labeling was visualized by exposure to 0.5 mg/ml 3,3′ diaminobenzidine (DAB) and 0.03% H2O2 in Tris buffer. Sections were mounted on subbed slides, dehydrated to xylene and coverslipped with Cytoseal.
Absolute counts of NOX-1ir cells was performed using a BX52 Olympus microscope interfaced with Microbrightfield stereological software and a Microfire CCD camera. Counts of NOX1-ir neurons were made at 20× and the sum of these values was adjusted according to the method of Abercrombie (Abercrombie, M., Estimation of nuclear populations from microtome sections, Anat. Rec. 94:239-247 (1946)). To assure that no cells were excluded or counted more than once, each cell was marked utilizing StereoInvestigator 7.0 (Microbrightfield Williston, Vt.). The total number of markers recorded by the software was utilized to estimate the total number of NOX-1ir cells (Fawcettt, et al., Dopaminergic neuronal survival and the effects of bFGF in explant, three dimensional and monolayer cultures of embryonic rat ventral mesencephalon, Exp. Brain Res. 106:275-82 (1995)).
Increased NOX-1 expression is directly linked to increased oxidative stress (Vignais, P., The superoxide-generating NADPF oxidase: structural aspects and activation mechanism, Cell Mol. Life Sci. 59:1428-59 (2002)). To determine the effect of ALL on NOX-1 expression in the SN and Red Nucleus, animals received either ALL pellets (n=6) or sham implantation (n=6). Pellet implantation surgery took place 3 days prior to intrastriatal 6-OHDA infusion. Twenty-four hours post-lesion, animals were sacrificed via intracardial saline perfusion and the SN was processed for NOX-1 immunohistochemistry.

[1] = s.c. ALL pellets 3 days prior to 6-OHDA, twenty-four hours post-lesion, vs untreated controls

## NC(=O)NC1NC(=O)NC1=O (centres unmarked) [allantoin]
s.c. ALL pellets 3 days prior to 6-OHDA, overall treatment effect
  number of NOX-1ir cells in the SN: decreased
[1]
  number of NOX-1ir cells in the 6-OHDA lesioned SN: significant decrease
  number of NOX-1ir cells in the intact SN: significant decrease
s.c. ALL pellets 3 days prior to 6-OHDA, twenty-four hours post-lesion, vs untreated controls, listed as ALL
  number of NOX-1ir cells in the 6-OHDA lesioned SN: significantly reduced
s.c. allantoin pellets, SN
  NOX-1 expression induced by 6-OHDA: significantly reduced
